The compounds below were run against T1, Bifunctional epoxide hydrolase 2 (Homo sapiens, UniProt P34913) (assay: Inhibition of soluble epoxide hydrolase by fluorescence assay).
T1 sequence (P34913 whole entry): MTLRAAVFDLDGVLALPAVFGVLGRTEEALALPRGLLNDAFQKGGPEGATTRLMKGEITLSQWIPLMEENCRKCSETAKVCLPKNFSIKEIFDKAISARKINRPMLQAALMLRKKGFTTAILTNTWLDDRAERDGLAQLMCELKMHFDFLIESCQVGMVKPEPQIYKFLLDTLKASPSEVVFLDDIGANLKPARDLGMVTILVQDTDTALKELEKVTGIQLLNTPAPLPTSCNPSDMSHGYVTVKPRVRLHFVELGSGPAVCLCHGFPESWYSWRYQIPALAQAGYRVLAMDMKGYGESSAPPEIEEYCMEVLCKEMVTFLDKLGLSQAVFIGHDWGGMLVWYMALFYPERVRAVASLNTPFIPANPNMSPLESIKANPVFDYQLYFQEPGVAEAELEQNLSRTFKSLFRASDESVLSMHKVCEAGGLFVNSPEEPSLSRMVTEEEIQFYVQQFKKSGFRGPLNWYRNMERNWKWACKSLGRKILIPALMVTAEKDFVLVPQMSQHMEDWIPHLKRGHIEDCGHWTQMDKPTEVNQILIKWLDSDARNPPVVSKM

IC50 | SMILES
4 nM | CC(C)N1CCN(C(=O)c2ccc(NC(=O)Nc3ccc(OC(F)(F)F)cc3)cc2)CC1
760 nM | O=C(Nc1ccc(Cl)cc1)Nc1ccc(F)c(C(=O)NCCN2CCCC2)c1
68 nM | O=C(Nc1ccc(C(F)(F)F)cc1)Nc1cccc(C(=O)NCCN2CCCC2)c1
18 nM | O=C(Nc1ccc(C(F)(F)F)cc1)Nc1cccc(C(=O)Nc2cccnc2)c1
16 nM | CN1CCN(C(=O)c2cc(NC(=O)Nc3ccc(C(F)(F)F)cc3)ccc2F)CC1
160 nM | CN1CCN(C(=O)c2ccc(NC(=O)Nc3ccc(F)cc3)cc2)CC1
12 nM | O=C(Nc1ccc(C(=O)N2CCNCC2)cc1)NC12CC3CC(CC(C3)C1)C2
19 nM | O=C(Nc1ccc(C(F)(F)F)cc1)Nc1ccc(C(=O)NCCN2CCCC2)c(F)c1
200 nM | CN(CC(=O)O)C(=O)c1ccc(NC(=O)NC23CC4CC(CC(C4)C2)C3)cc1
2 nM | CC(C)N1CCN(C(=O)c2ccc(NC(=O)Nc3ccc(C(F)(F)F)cc3)cc2)CC1
2 nM | O=C(Nc1ccc(OC(F)(F)F)cc1)Nc1ccc(C(=O)NCCN2CCOCC2)cc1
11 nM | O=C(Nc1ccc(Cl)cc1)Nc1ccc(C(=O)N2CCOCC2)c(F)c1
1 nM | O=C(Nc1ccc(C(F)(F)F)cc1)Nc1cccc(S(=O)(=O)NCCN2CCOCC2)c1
19 nM | O=C(Nc1ccc(C(=O)NCCN2CCOCC2)cc1)Nc1ccc(C2CCCCC2)cc1
18 nM | O=C(Nc1ccc(Cl)cc1)Nc1ccc(C(=O)N2CCOCC2)cc1
251 nM | O=C(Nc1ccccc1)Nc1ccc(C(=O)N2CCOCC2)cc1
47 nM | O=C(Nc1ccc(Cl)cc1)Nc1cccc(C(=O)N2CCC(N3CCOCC3)CC2)c1
7 nM | CN1CCN(C(=O)c2ccc(NC(=O)Nc3ccc(OC(F)(F)F)cc3)cc2)CC1
140 nM | O=C(Nc1ccc(F)cc1)Nc1ccc(C(=O)NCCN2CCOCC2)cc1
8 nM | O=C(Nc1ccc(C(=O)Nc2cccnc2)cc1)Nc1ccc(C(F)(F)F)cc1
4 nM | O=C(Nc1ccc(OC(F)(F)F)cc1)Nc1ccc(C(=O)N2CCOCC2)cc1
1 nM | O=C(Nc1ccc(C(F)(F)F)cc1)Nc1cccc(S(=O)(=O)CCCN2CCOCC2)c1

IC50 | SMILES
20 nM | O=C(Nc1ccc(C(=O)c2ccc(C(=O)O)cc2)cc1)Nc1ccc(C(F)(F)F)cc1
170 nM | O=C(Nc1ccc(F)cc1)Nc1ccc(C(=O)N2CCOCC2)cc1
3 nM | O=C(Nc1ccc(C(=O)NCCN2CCOCC2)cc1)NC12CC3CC(CC(C3)C1)C2
800 nM | O=C(O)CNC(=O)c1cccc(NC(=O)NC23CC4CC(CC(C4)C2)C3)c1
48 nM | O=C(Nc1ccc(C(=O)NCCN2CCCC2)cc1)Nc1ccc(C(F)(F)F)cc1
54 nM | COCCNC(=O)c1ccc(NC(=O)NC23CC4CC(CC(C4)C2)C3)cc1
1 nM | O=C(Nc1ccc(C(F)(F)F)cc1)Nc1ccc(S(=O)(=O)CCCN2CCOCC2)cc1
4 nM | CN1CCN(C(=O)c2ccc(NC(=O)Nc3ccc(C(F)(F)F)cc3)cc2F)CC1
280 nM | O=C(Nc1ccc(C2CCCCC2)cc1)Nc1cccc(C(=O)NCCN2CCOCC2)c1
1 nM | O=C(Nc1ccc(C(F)(F)F)cc1)Nc1cccc(S(=O)(=O)N2CCOCC2)c1
36 nM | CN1CCN(C(=O)c2cccc(NC(=O)NC34CC5CC(CC(C5)C3)C4)c2)CC1
110 nM | COCCNC(=O)c1cccc(NC(=O)NC23CC4CC(CC(C4)C2)C3)c1
80 nM | O=C(O)COCCNC(=O)c1ccc(NC(=O)NC23CC4CC(CC(C4)C2)C3)cc1
235 nM | O=C(Nc1ccc(Cl)cc1)Nc1ccc(C(=O)N2CCC(N3CCOCC3)CC2)cc1
130 nM | O=C(O)COCCNC(=O)c1cccc(NC(=O)NC23CC4CC(CC(C4)C2)C3)c1
16 nM | O=C(Nc1ccc(Cl)cc1)Nc1ccc(C(=O)NCCN2CCOCC2)cc1
490 nM | O=C(O)CNC(=O)c1ccc(NC(=O)NC23CC4CC(CC(C4)C2)C3)cc1
5 nM | O=C(Nc1ccc(C(=O)N2CCOCC2)cc1)Nc1ccc(C(F)(F)F)cc1
8 nM | O=C(Nc1ccc(C(F)(F)F)cc1)Nc1ccc(F)c(C(=O)N2CCOCC2)c1
27 nM | O=C(Nc1ccc(C(F)(F)F)cc1)Nc1cccc(C(=O)c2ccc(C(=O)O)cc2)c1
18 nM | O=C(Nc1ccc(C(F)(F)F)cc1)Nc1ccc(F)c(C(=O)NCCN2CCOCC2)c1
19 nM | O=C(O)CCCNC(=O)c1ccc(NC(=O)Nc2ccc(C(F)(F)F)cc2)cc1

IC50 | SMILES
230 nM | CN(CC(=O)O)C(=O)c1cccc(NC(=O)NC23CC4CC(CC(C4)C2)C3)c1
100 nM | O=C(Nc1ccccc1)Nc1cccc(S(=O)(=O)CCCN2CCOCC2)c1
3 nM | O=C(Nc1ccc(C(=O)NCC(=O)N2CCOCC2)cc1)Nc1ccc(C(F)(F)F)cc1
22 nM | O=C(Nc1ccc(C(F)(F)F)cc1)Nc1cccc(C(=O)NCCN2CCOCC2)c1
54 nM | O=C(Nc1ccccc1)Nc1ccc(S(=O)(=O)CCCN2CCOCC2)cc1
5 nM | CC(C)N1CCN(S(=O)(=O)c2ccc(NC(=O)Nc3ccc(C(F)(F)F)cc3)cc2)CC1
15 nM | CC(C)N1CCN(C(=O)c2cccc(NC(=O)Nc3ccc(C(F)(F)F)cc3)c2)CC1
3 nM | O=C(Nc1ccc(C(F)(F)F)cc1)Nc1ccc(S(=O)(=O)NCCN2CCOCC2)cc1
130 nM | O=C(Nc1ccc(Cl)cc1)Nc1cccc(C(=O)NCCN2CCOCC2)c1
62 nM | O=C(Nc1cccc(C(=O)NCCN2CCOCC2)c1)NC12CC3CC(CC(C3)C1)C2
120 nM | O=C(O)CCCNC(=O)c1cccc(NC(=O)Nc2ccc(C(F)(F)F)cc2)c1
1 nM | O=C(Nc1ccc(C(=O)NCCN2CCOCC2)cc1)Nc1ccc(C(F)(F)F)cc1
2800 nM | O=C(Nc1ccccc1)Nc1cccc(C(=O)NCCN2CCOCC2)c1
3 nM | CC(C)N1CCN(S(=O)(=O)c2cccc(NC(=O)Nc3ccc(C(F)(F)F)cc3)c2)CC1
14 nM | CN1CCN(C(=O)c2ccc(NC(=O)Nc3ccc(C(F)(F)F)cc3)cc2)CC1
12 nM | CN1CCN(C(=O)c2cccc(NC(=O)Nc3ccc(C(F)(F)F)cc3)c2)CC1
2 nM | O=C(Nc1ccc(C(F)(F)F)cc1)Nc1ccc(C(=O)N2CCOCC2)c(F)c1
1 nM | O=C(Nc1ccc(C(F)(F)F)cc1)Nc1ccc(S(=O)(=O)N2CCOCC2)cc1
2 nM | O=C(Nc1ccc(C(F)(F)F)cc1)Nc1ccc(C(=O)NCCN2CCOCC2)c(F)c1
49 nM | O=C(Nc1ccc(Cl)cc1)Nc1cccc(C(=O)N2CCOCC2)c1
38 nM | O=C(Nc1ccc(Cl)cc1)Nc1ccc(F)c(C(=O)NCCN2CCOCC2)c1
320 nM | O=C(Nc1ccccc1)Nc1ccc(C(=O)NCCN2CCOCC2)cc1
